Entries after “also recorded” stand apart in the source; their conditions may differ.

The test system of data set [1] is PS1. The experiment in a line: Immunoblot of PS1 expression in N2a cells transduced with lentiviral vector. It is filed as cell-based, murine. The following applies: N2a cells five days following transduction, versus GFP only or irrelevant siRNA; FIG. 6A. The text has this:
PS1 siRNA lentiviruses were verified by immunoblot analysis for the reduction of PS1 protein expression in N2a cells transduced with the lentiviral vector. N2a cells were transduced with the purified shRNA vector preparation followed by immunoblot analysis using anti-PS1 polyclonal antibody (Lazarov et al., 2005, J. Neurosci. 25: 2386-95.). Presenilins undergo cleavage in an alpha helical region of one of the cytoplasmic loops to produce a larger N-terminal (“PS1 NTF”) and a smaller C-terminal fragment which together form part of the functional protein. […] PS1 siRNA 4-11 (lane 1) refers to a different PS1 siRNA construct having the siRNA sequence of 5′ GGACCAACTTGCATTCCAT 3′ (SEQ ID NO:18) under the U6 promoter. The samples in lanes 6 and 7 were brain extracts of transgenic mice harboring PS1HWT (wild type human PS1; lane 6) and PS1ΔE9 (human PS1 with exon 9 deleted; lane 7), both of which served as positive controls for PS1 detection.
(Immunoblotting shows a protein as a band on a membrane.)

The test system of data set [2] is neurospheres derived from adult mice neural stem cells. The experiment in a line: Neurosphere diameter assay of singly dissociated adult NSCs plated for 8 days. The format is cell-based. The following applies: FIG. 4. From the text:
Both α- and β-secretases can cleave membrane-bound APP and release the secreted form of APP (sAPP). Proteolytic cleavage of APP by α-secretase releases one form of the secreted APP referred to as sαAPP, whereas cleavage of APP by β-secretase releases a C-terminally truncated sAPP referred to as sβAPP. The significance and difference in the functionality of these two forms of sAPP remains elusive. To distinguish the role of the α or β form of sAPP in promoting neural stem cell proliferation, neurospheres derived from adult mice neural stem cells were dissociated to single cells, plated for 8 days, treated with GM6001 or GM6001NK alone, treated with GM6001 and supplemented with conditioned media from neuroblastoma N2a cells expressing wild type APP, or treated with GM6001 and supplemented with conditioned media from 192 Swe N2a cells. Media conditioned by the neuroblastoma N2a was enriched in sαAPP as the wild type APP expressed in these cells was preferentially processed by α-secretase to produce sαAPP. The 192 Swe N2a conditioned medium was enriched in sβAPP as the 192 Swe N2a cells expressing the Swedish mutant form of APP that was preferentially cleaved by β-secretase. See Bogdanovic et al., 2001, Dement Geriatr. Congn. Discord. 12:364-70.

Data set [3] relates to sAPP. The experiment in a line: Immunoblot of sAPP in conditioned media of treated NSC (22C11 antibody). The following applies: NSC cultures, versus GM6001NK; FIG. 3B. The format is cell-based, mice. The text has this:
APPWT CM represents proliferation results of GM6001-treated cells supplemented with APPWT-conditioned media. (B) Immunoblot analysis of sAPP levels in conditioned media from GM6001- and GM6001NK-treated NSC using the 22C11 antibody.
Results were obtained as percentages of BrdU positive cells in GM6001-treated culture over BrdU positive cells in the control culture treated with DMSO (FIG. 3A). […] To examine the possibility that reduced proliferation was a result of reduced levels of sAPP, GM6001-treated cells were supplemented with conditioned media of neurospheres derived from APPWT mice, in which the α-secretase cleavage product sαAPP was present. […] The secretion levels of sAPP were also examined by immunoblot analysis in the conditioned media of GM6001- or GM6001NK-treated cells.

For data set [4], the system named is neural stem cells isolated from the SVZ of adult wild type mice. Nature of the data set: BrdU proliferation assay of neurosphere cultures treated with ADAM inhibitor. It is filed as cell-based. Conditions: treated 48 hours, compared to inactive analog GM6001NK; FIG. 3A.
Description: The role for α-secretase in regulating proliferation of NSCs was examined. Neurosphere cultures were established from neural stem cells isolated from the SVZ of adult wild type mice. […] Thereafter, cells were pulse-labeled with 5 μM BrdU for 24 hours before fixation in 4% paraformaldehyde (PFA). The fixed cells were incubated with anti-BrdU antibodies and then HRP-conjugated secondary antibodies, followed by incubation with the TMD peroxidase substrate (Pierce Protein Research Products, Thermo Scientific, Rockford, Ill.). Signals were detected using a plate reader at 450-595 nm.
Data set [5] relates to neural stem cells. The experiment in a line: Neural stem cell differentiation assay on poly-L-ornithine/laminin. The format is cell-based, mice. Here is the method:
The effects of γ-secretase inhibitor L-685,458 on neural stem cell differentiation was analyzed. Neural stem cells were allowed to differentiate when cultured on glass coverslips coated with 10 μg/mL poly-L-ornithine (Sigma, St. Louis, Mo.) and 5-10 μg/mL laminin (Sigma) in media with 5% fetal bovine serum without EGF and FGF.
γ-secretase inhibitor L-685,458-induced differentiation was further analyzed by immunostaining using antibodies to the astrocyte marker GFAP, and the early neural marker nestin. […] Scale bar=[…] (FIG. 8E, representative GFAP staining is marked with single arrows).
The length of the processes developed from the middle of the soma to the axon tip of GFAP positive cells after two days of L-685,458 treatment was analyzed and the results are shown in FIG. 8G. Twenty four hours after culturing whole neurospheres on laminin, vehicle-treated cultures remained mostly as neurospheres with slight cell differentiation (FIG. 8F, top panels).

In data set [6] the test system is neurospheres from the SVZ of adult mice. The experiment in a line: BrdU proliferation assay of neurospheres (γ-secretase inhibitor or lentiviral siRNA). The format is cell-based. Conditions: 1 μM for 24 hours; FIG. 8A. As for the experimental part:
To further establish that reduced expression of PS1 decreased neural stem cell proliferation and induced neural stem cell differentiation, neurospheres established as described above from the SVZ of adult mice were subject to a proliferation assay following the treatment with the γ-secretase inhibitor L-685,458 (1 μM for 24 hours) (Sigma, St. Louis, Mo.). As a comparison, neurospheres were transduced with lentiviral vectors expressing either IR siRNA or PS1 siRNA. The proliferation assay was performed as follows: lentivirally-transduced neurospheres or γ-secretase inhibitor-treated neurospheres were singly dissociated and cultured (10,000 cells/well) with BrdU for 48 hours. BrdU-labeled cells were fixed in 4% PFA and immunolabeled with anti-BrdU antibodies followed by HRP-conjugated secondary antibodies. Thereafter, the cells were incubated with the TMD peroxidase substrate and read on a plate reader at 450-595 nm. […] Results were presented as a percentage of DMSO-treated NSCs.

As for “5′ GGACCAACTTGCATTCCAT 3′ (expressed or natural sequence) [PS1 siRNA 4-11]”, the PS1 expression result in data set [1] was “reduced”.
`CNC(=O)[C@H](Cc1c[nH]c2ccccc12)NC(=O)[C@@H](CC(=O)NO)CC(C)C` [GM6001]: the “average diameter of neurospheres” value in data set [2] is on record as “reduced the average diameter of neurospheres”. The “levels of secreted sAPP in conditioned media” value in data set [3] is reported as “reduced”. Besides, the “BrdU immunoreactivity (BrdU positive cells relative to DMSO control)” value in data set [4] is “Reduced BrdU immunoreactivity”.
As to `CC(C)C[C@H](NC(=O)[C@H](Cc1ccccc1)C[C@@H](O)[C@H](Cc1ccccc1)NC(=O)OC(C)(C)C)C(=O)N[C@@H](Cc1ccccc1)C(N)=O` [L-685,458], the GFAP immunostaining entry in data set [5] (FIG. 8E) is on record as “Positive staining of GFAP”. In data set [5] (differentiation medium, compared to DMSO, FIGS. 8B-8F), the “neural progenitor cell differentiation” value is listed as “induced neural progenitor cell differentiation”. In addition, in data set [5] (neurospheres on laminin, FIG. 8F), the “immunostaining for β-tubulin and GFAP” value is “increased immunostaining for both β-tubulin and GFAP”. Moreover, the “differentiation of whole neurospheres cultured on laminin” value in data set [5] (twenty four hours on laminin, FIG. 8F) is recorded as “extensive differentiation”. Moreover, the “number of differentiated cells” value in data set [5] (two-day treatment, compared to control, FIG. 8C) is “increased number of differentiated cells”. Also, the “number of GFAP+Nestin+DCX+ cells” value in data set [5] (two-day treatment, compared to control, FIG. 8H) is reported as “dramatically decreased; also recorded: decrease”. The “number of neurospheres formed from singly-dissociated neurosphere cells” value in data set [5] (two-day treatment, compared with control, FIG. 8D) was “reduced number of neurospheres”. Further, in data set [6], the “BrdU+ immunoreactivity (percentage of DMSO-treated NSCs)” value is on record as “Reduced BrdU+ immunoreactivity; also recorded: reduced neural stem cell proliferation”.

The values are drawn from patent publication US20110129450A1, “METHOD OF PROMOTING NEUROGENESIS BY MODULATING SECRETASE ACTIVITIES” (priority 2008, published 2011).
